Assay results taken from patent publication US7605265B2, “Heterodimers and methods of using them” (priority 2007, dated 2009).

Legend:
[1] = test system: scopolamine-induced memory impaired rats; assay: Morris water maze, scopolamine-induced memory impairment; type: in vivo, rat
Protocol: The Morris water maze consists of a water pool with a hidden, submerged escape platform. The rats must learn, over a period of consecutive days, the location of the platform using either contextual or local cues. The time taken to locate the hidden platform (escape latency) is a measure of the animal's cognitive abilities.
(§1) Scopolamine (0.1 mg/kg) was first i.p. administered to young adult rats to impair their memories. Scopolamine-induced memory impaired rats were then orally administered one of three different doses of compound B (0.025, 0.050, or 0.100 mg/kg) and subjected to the Morris water maze over a period of 4 days. On each day, the time taken for the rats to detect the hidden platform in the water maze was measured, in seconds.
as §1, with “C (0.1, 0.2,” for “B (0.025, 0.050,”, “0.4” for “0.100”
as §1, with “A (0.1, 0.2,” for “B (0.025, 0.050,”, “0.4” for “0.100”
A spatial bias (% of total distance swum in the training quadrant during spatial probe trial) for the region of the apparatus where the platform was positioned during training was also measured for compounds B and C.
The spatial bias for the region of the testing apparatus where the hidden platform was positioned during training was measured. […] Tacrine (THA) was included for comparison purposes.

transient focal ischemia = assay: MCAO (middle carotid artery occlusion model), transient focal ischemia; type: in vivo, mice
Protocol: The MCAO (middle carotid artery occlusion model) was performed to investigate the protective effects of compounds A, B and C on the brain when the brain was exposed to transient focal ischemia (lack of oxygen), emulating brain conditions during a stroke. […] The ability of the novel compounds to protect against the appearance of these neurological deficits was examined using a four-point scale neurological scoring system (Mann Whitney U test). For each of the following observable signs, the distribution of test subjects was noted (with and without treatment with the invention after ischemia): (0) no observable neurological deficits (normal); (1) failure to extend the left forepaw fully (mild); (2) circling to the contralateral side (moderate); and (3) loss of walking and righting reflex (severe). • (ii) The brains of the test subjects slices were sectioned into five pieces and the infarct area and volume of each slice was measured. The % of infarct area in test subjects treated with the invention after ischemia was compared to that of the control group for each brain slice. • (iii) Hemispheric brain swelling and infarct volume (the area of dead tissue caused by inadequate blood supply) was measured for test subjects treated with the invention after ischemia, and compared to that of the control group.
The compounds were administered 5 minutes after ischemia, 5 minutes after reperfusion, or 6 hours after ischemia. FIGS. 5a to 5f show results for the heterodimers compound B, C or A respectively, when administered 5 minutes after ischemia or reperfusion. FIGS. 5g and 5h show the results when the novel heterodimers were administered 6 hours after ischemia.
Compound B was administered at 5 minutes after ischemia. Distribution of neurological scores based on a four-point scale neurological scoring system (Mann Whitney U test): (0) no observable neurological deficits (normal); (1) failure to extend the left forepaw fully (mild); (2) circling to the contralateral side (moderate); and (3) loss of walking and righting reflex (severe).
The brain was sectioned into five pieces, each 2-mm thick. The infarct area of each posterior surface was analyzed by an image analysis program. The percentage of infarct area and volume were calculated and presented as the percentage of the infarct area of the contralateral hemisphere to eliminate the contribution of edema to the ischemic lesion.
The infarct area of each posterior surface was analyzed by an image analysis program. Hemispheric brain swelling was calculated as follows (ipsilateral volume−contralateral volume)/contralateral volume×100%.

[2] = 0.005 μg/kg, 6 hours after ischemia
[3] = 0.05 μg/kg, 5 minutes after ischemia
[4] = 0.05 μg/kg, 6 hours after ischemia
[5] = 0.5 μg/kg, 5 minutes after ischemia

Structure (SMILES): O=c1ccc2c([nH]1)CCCC2NCCCCCCCNc1c2c(nc3cc(Cl)ccc13)CCCC2 (stereo not drawn) [Compound B]
- escape latency ([1]; 0.1 mg/kg orally, scopolamine 0.1 mg/kg i.p., 4 days, FIG. 4a): reversed the increased escape latency induced by scopolamine
- spatial bias ([1]; 0.05 and 0.1 mg/kg p.o., scopolamine 0.1 mg/kg, FIG. 4d): spatial bias close to control levels
- spatial bias (% of total distance swum in the training quadrant during spatial probe trial) ([1]; memory-impaired rats, FIG. 4d-4f): significantly increased spatial bias
- % Infarct area in brain slice # 1 (transient focal ischemia; [2]): 11.9 ± 4.3%
- % Infarct area in brain slice # 2 (transient focal ischemia; [2]): 43.4 ± 6.5%
- % Infarct area in brain slice # 3 (transient focal ischemia; [2]): 40.1 ± 4.7 %
- % Infarct area in brain slice # 4 (transient focal ischemia; [2]): 24.3 ± 7.5%
- % Infarct area in brain slice # 5 (transient focal ischemia; [2]): −1.4 ± 1.0%
- Hemispheric swelling (%) (transient focal ischemia; [2]): 7.3 ± 1.2%
- Infarct volume (%) (transient focal ischemia; [2]): 28.5 ± 3.4%
- Observed Neurological Deficits Mean ± SEM (transient focal ischemia; [2]): 1.2 ± 0.2
- Observed Neurological Deficits, score 0 (number of animals) (transient focal ischemia; [2]): 0
- Observed Neurological Deficits, score 1 (number of animals) (transient focal ischemia; [2]): 7
- Observed Neurological Deficits, score 2 (number of animals) (transient focal ischemia; [2]): 2
- Observed Neurological Deficits, score 3 (number of animals) (transient focal ischemia; [2]): 0
- n (dead/total): dead/total (transient focal ischemia; [2]): 9 (0/9)
- % Infarct area in brain slice # 1 (transient focal ischemia; [3]): 11.5%
- % Infarct area in brain slice # 2 (transient focal ischemia; [3]): 42.6 ± 4.8 %
- % Infarct area in brain slice # 3 (transient focal ischemia; [3]): 40.0 ± 6.6 %
- % Infarct area in brain slice # 4 (transient focal ischemia; [3]): 34.0%
- % Infarct area in brain slice # 5 (transient focal ischemia; [3]): 0.1%
- Hemispheric swelling (%) (transient focal ischemia; [3]): 6.5 ± 1.5%
- Infarct volume (%) (transient focal ischemia; [3]): 31.2 ± 4.6 %
- Observed Neurological Deficits Mean ± SEM (transient focal ischemia; [3]): 1.1 ± 0.1
- Observed Neurological Deficits, score 0 (number of animals) (transient focal ischemia; [3]): 0
- Observed Neurological Deficits, score 1 (number of animals) (transient focal ischemia; [3]): 8
- Observed Neurological Deficits, score 2 (number of animals) (transient focal ischemia; [3]): 1
- Observed Neurological Deficits, score 3 (number of animals) (transient focal ischemia; [3]): 0
- n (dead/total): dead/total (transient focal ischemia; [3]): 9 (2/11)
- infarct area in brain slices (in words) (transient focal ischemia; 0.05 μg/kg, 5 minutes after ischemia, FIG. 5a): reduced the infarct area in brain slices #2 and #3
- % Infarct area in brain slice # 1 (transient focal ischemia; [4]): 15.7 ± 2.9%
- % Infarct area in brain slice # 2 (transient focal ischemia; [4]): 50.5 ± 7.2%
- % Infarct area in brain slice # 3 (transient focal ischemia; [4]): 41.7 ± 6.0%
- % Infarct area in brain slice # 4 (transient focal ischemia; [4]): 25.2 ± 8.2%
- % Infarct area in brain slice # 5 (transient focal ischemia; [4]): −1.3 ± 1.7%
- Hemispheric swelling (%) (transient focal ischemia; [4]): 7.0 ± 1.5%
- Infarct volume (%) (transient focal ischemia; [4]): 31.1 ± 4.8%
- Observed Neurological Deficits Mean ± SEM (transient focal ischemia; [4]): 1.4 ± 0.2
- Observed Neurological Deficits, score 0 (number of animals) (transient focal ischemia; [4]): 0
- Observed Neurological Deficits, score 1 (number of animals) (transient focal ischemia; [4]): 5
- Observed Neurological Deficits, score 2 (number of animals) (transient focal ischemia; [4]): 3
- Observed Neurological Deficits, score 3 (number of animals) (transient focal ischemia; [4]): 0
- n (dead/total): dead/total (transient focal ischemia; [4]): 8 (3/12)
- Observed Neurological Deficits Mean ± SEM (transient focal ischemia; [5]): 1.5 ± 0.3
- Observed Neurological Deficits, score 0 (number of animals) (transient focal ischemia; [5]): 0
- Observed Neurological Deficits, score 1 (number of animals) (transient focal ischemia; [5]): 2
- Observed Neurological Deficits, score 2 (number of animals) (transient focal ischemia; [5]): 2
- Observed Neurological Deficits, score 3 (number of animals) (transient focal ischemia; [5]): 0
- n (dead/total): dead/total (transient focal ischemia; [5]): 4 (4/8)
- infarct volume and hemispheric swelling (in words) (transient focal ischemia; 5 minutes after ischemia (compound A: 0.05 and 0.1 mg/kg), FIG. 5b, 5f): reduces infarct volume but not hemispheric swelling
- infarct area (in words) (transient focal ischemia; 6 hours after ischemia, FIG. 5g): improvement in the infarct area
- infarct volume (in words) (transient focal ischemia; 6 hours after ischemia, FIG. 5h): decreases infarct volume
- neurological deficits induced by ischemia (in words) (transient focal ischemia; administered 5 minutes after ischemia): reduced neurological deficits induced by ischemia
- neurological deficits (in words) (transient focal ischemia; administration 6 hours after ischemia): reduced neurological deficits
